Data: PubChem BioAssay (NCI)
Where “and” joins values, the source holds several entries; their conditions need not be identical. Equal values may be shown once.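 Method: 48-hour compound exposure of cells in 96-well plates, five concentrations, linear interpolation of endpoints. The concentration for 50% growth inhibition is given as GI50. Definition used: TGI = concentration required for complete inhibition of growth.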

Columns and labels:
Test in all cases: NCI tumour cell line growth inhibition, 48 h
NCI-H23 lung = tested on: NCI-H23 lung
SK-MEL-28 melanoma = tested on: SK-MEL-28 melanoma
ACHN renal = tested on: ACHN renal
CAKI-1 renal = tested on: CAKI-1 renal
CCRF-CEM leukemia = tested on: CCRF-CEM leukemia
MCF7 breast = tested on: MCF7 breast
HCT-116 colon = tested on: HCT-116 colon
IGROV1 ovarian = tested on: IGROV1 ovarian

Structure (SMILES)	GI50 (NCI-H23 lung)	TGI (NCI-H23 lung)	GI50 (SK-MEL-28 melanoma)	TGI (SK-MEL-28 melanoma)	GI50 (ACHN renal)	TGI (ACHN renal)	GI50 (CAKI-1 renal)	TGI (CAKI-1 renal)	TGI (CCRF-CEM leukemia)	GI50 (MCF7 breast)	TGI (MCF7 breast)	GI50 (HCT-116 colon)	TGI (HCT-116 colon)	GI50 (IGROV1 ovarian)	TGI (IGROV1 ovarian)	GI50 (CCRF-CEM leukemia)
CC1/C=C/C=C/CC/C=C/C=C/C=C/C=C/C(OC2OC(C)C(O)C(N)C2O)CC2OC(CC(O)C(O)CCC(O)CC(O)CC(O)CC(=O)OC(C)C(C)C1O)CC(O)C2C(=O)O (centres undefined)	25.7 µg/mL	35.6 µM and 50.3 µg/mL	25.7 µg/mL	37 µM and 46.3 µg/mL	22.8 µg/mL	32.3 µM and 42.7 µg/mL	23.5 µg/mL	31.8 µM and 44.5 µg/mL	59.4 µM	128 µg/mL	36.4 µM and 150 µg/mL	37.7 µg/mL	32.1 µM and 112 µg/mL	23.4 µg/mL	32.2 µM and 52.1 µg/mL	
Clc1ccc(N2COOC3(OOC2)C2CC4CC(C2)CC3C4)cc1	11.5 µM	31.6 µM	> 30.8 µM	> 100 µM	0.622 µM	6.03 µM	0.299 µM	19.5 µM		3.98 µM	> 46.1 µM	4.1 µM	> 50.2 µM	1.81 µM	6.22 µM	2.81 µM
CC1=C(C(=O)Nc2ccc(F)c(Cl)c2)C(c2cccc(O)c2)NC(=S)N1 (centres undefined)	19.2 µM	> 50 µM	> 50 µM	> 50 µM	24.5 µM	> 50 µM	> 50 µM	> 50 µM	> 50 µM	17.5 µM	> 50 µM	34.2 µM	> 50 µM	22.9 µM	> 50 µM	> 50 µM
O=C1NC(=O)[C@@H](c2cn3c4c(cccc24)CCC3)[C@@H]1c1c[nH]c2ccccc12	0.545 µM and 0.53 µM	> 10 µM and 16.8 µM	1.04 µM and 0.66 µM	> 10 µM and 19.6 µM	0.661 µM and 0.829 µM	> 10 µM and 32.9 µM	0.332 µM and 0.518 µM	> 10 µM and 31.4 µM	> 10 µM and 41.2 µM	0.246 µM and 0.331 µM	> 10 µM and 12.8 µM	0.377 µM and 0.458 µM	> 6.16 µM and 10.6 µM	0.592 µM and 0.833 µM	> 10 µM and 23.2 µM	0.288 µM and 0.429 µM
Clc1ccc(Nc2ccnc(NCCNc3ccnc4cc(Cl)ccc34)n2)cc1	1.44 µM	2.91 µM	1.58 µM	3.03 µM	1.63 µM	3.09 µM	1.59 µM	3.01 µM	2.62 µM	1.08 µM	2.59 µM	0.522 µM	2.12 µM	1.43 µM	3.12 µM	1.01 µM
O=C1NC(=O)C2=C1CCC2O (centres undefined)		> 100 µM		> 100 µM		> 100 µM		> 100 µM	> 100 µM		> 100 µM		> 100 µM		> 100 µM	
O=C1C(Cl)=C(Oc2ccccc2)C(=O)c2ccccc21	9.49 µM	24.5 µM	13.5 µM	27.1 µM	1.63 µM	3.14 µM	1.8 µM	4.03 µM	8.32 µM	7.3 µM	25.2 µM	1.82 µM	3.41 µM	2.96 µM	9.63 µM	2.23 µM
COc1ccc(/C=C\c2cc(OC)c(OC)c(OC)c2)cc1NC(=O)[C@@H](N)CO	0.033 µM	> 100 µM			0.0268 µM	> 100 µM	< 0.01 µM	> 100 µM	> 100 µM	0.0207 µM	> 100 µM	0.0176 µM	> 100 µM	0.0273 µM	> 92.6 µM	0.0263 µM
C=C1C(=O)O[C@H]2[C@H]1CC/C(COC(=O)/C=C/c1cccnc1)=C\CC[C@@]1(C)O[C@@H]21	3.42 µM	15.4 µM	1.26 µM	2.61 µM					3.73 µM	0.748 µM	2.72 µM	0.371 µM	1.52 µM	2.07 µM	7.86 µM	0.338 µM
CCOC(=O)c1sc2ncn(Cc3cccc(Cl)c3)c(=O)c2c1C	14.7 µM	27.9 µM	16.8 µM	30.4 µM	14.7 µM	27.9 µM	6.19 µM	19.2 µM		15.8 µM	29.2 µM	12.3 µM	24.8 µM	8.89 µM	21.2 µM	
COc1ccc(/C=C/C(=O)/C=C(/C=C/c2ccc(OC)c(OC)c2)OB(F)F)cc1OC	1.33 µM	4.17 µM	1.18 µM	3.1 µM	0.352 µM	1.98 µM			2.63 µM	0.4 µM	> 100 µM	0.321 µM	1.09 µM	0.486 µM	4.41 µM	0.323 µM
CC(C)SC1SCC2C(=O)N(C)C3(CC3C)C(=O)OCC(NC(=O)c3nc4ccccc4cc3O)C(=O)NC(C)C(=O)N(C)C1C(=O)N(C)C1(CC1C)C(=O)OCC(NC(=O)c1nc3ccccc3cc1O)C(=O)NC(C)C(=O)N2C (centres undefined)		< 0.0001 µM		< 0.0001 µM		> 100 µM		0.00028 µM	< 0.0001 µM				> 100 µM			
CS(=O)(=O)c1ccc(Oc2nccc(-c3c(-c4ccc(F)cc4)ncn3C3CCNCC3)n2)cc1			> 25 µM	> 25 µM	> 25 µM	> 25 µM	> 25 µM	> 25 µM		> 25 µM	> 25 µM	> 25 µM	> 25 µM	> 25 µM	> 25 µM	
COc1ccc(-n2c(-c3ccc(NC(=O)CCCl)cc3)nnc2-c2cc(OC)c(OC)c(OC)c2)cc1	3.66 µM	> 14.3 µM	3.56 µM	14 µM	2.21 µM	8.4 µM			> 14.3 µM	3.15 µM	> 14.3 µM	2.81 µM	8.54 µM	2.9 µM	> 14.3 µM	4.53 µM
O=C(O)CSCC(=O)c1ccccc1		> 100 µM		> 100 µM		> 100 µM		> 100 µM			> 100 µM		> 100 µM		> 100 µM	
COc1cccc2c(Nc3ccc(C(=O)NCCNCCO)cc3)cc(-c3ccccc3)nc12	63.3 µM	> 100 µM	35.2 µM	> 100 µM			> 100 µM	> 100 µM	48.3 µM			34.6 µM	> 100 µM	20.4 µM	48.7 µM	20.2 µM
O=C(O)C(Cc1ccccc1-c1ccccc1)C(=O)O		> 100 µM		> 100 µM		> 100 µM		> 100 µM			> 100 µM		> 100 µM		> 100 µM	
